Tests used:
Assay in all cases: relative viability (nuclei count vs DMSO), 5 days (fraction); higher = more cells survive
[1] = compound: COc1cccc2c1C(=O)c1c(O)c3c(c(O)c1C2=O)C[C@@](O)(C(=O)CO)C[C@@H]3O[C@H]1C[C@H](N)[C@H](O)[C@H](C)O1 [Doxorubicin] + O=C(c1cc(Cc2n[nH]c(=O)c3ccccc23)ccc1F)N1CCN(C(=O)C2CC2)CC1 [Olaparib] (partner 8 µM)
How it was run: (§1)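 Dosing by pin tool came one day after lung cancer cell lines were seeded in 1536-well plates, using either one drug or a fixed anchor-drug dose plus five library-drug doses (not always all listed) in √10 steps. After 5 days, nuclei were counted on 4× images. Relative viability is treated-well nuclei count divided by vehicle-well nuclei count, and values are medians of duplicate plates.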

[2] = compound: COc1cccc2c1C(=O)c1c(O)c3c(c(O)c1C2=O)C[C@@](O)(C(=O)CO)C[C@@H]3O[C@H]1C[C@H](N)[C@H](O)[C@H](C)O1 [Doxorubicin] + C[C@@H](Oc1cc(-c2cnn(C3CCNCC3)c2)cnc1N)c1c(Cl)ccc(F)c1Cl [Crizotinib] (partner 1 µM)
How it was run: as §1

[3] = compound: COC1=C(C=C(C=C1)C2=CC3=NC=CN3C(=N2)NC4=C(C=CC=N4)C(=O)N)OC [BAY61-3606] + CS(=O)(=O)CCNCc1ccc(-c2ccc3ncnc(Nc4ccc(OCc5cccc(F)c5)c(Cl)c4)c3c2)o1 [Lapatinib] (partner 2 µM)
How it was run: as §1

[4] = compound: COC1=C(C=C(C=C1)C2=CC3=NC=CN3C(=N2)NC4=C(C=CC=N4)C(=O)N)OC [BAY61-3606] + Cc1nc(Nc2ncc(C(=O)Nc3c(C)cccc3Cl)s2)cc(N2CCN(CCO)CC2)n1 [Dasatinib] (partner 0.075 µM)
How it was run: as §1

Cell Line	relative viability ([1]; first compound 0.001 µM)	relative viability ([1]; first compound 0.003162 µM)	relative viability ([1]; first compound 0.03162 µM)	relative viability ([1]; first compound 0.1 µM)	relative viability ([2]; first compound 0.001 µM)	relative viability ([2]; first compound 0.003162 µM)	relative viability ([2]; first compound 0.01 µM)	relative viability ([2]; first compound 0.03162 µM)	relative viability ([2]; first compound 0.1 µM)	relative viability ([3]; first compound 0.02 µM)	relative viability ([3]; first compound 0.06325 µM)	relative viability ([3]; first compound 0.2 µM)	relative viability ([3]; first compound 0.6325 µM)	relative viability ([3]; first compound 2 µM)	relative viability ([4]; first compound 0.02 µM)	relative viability ([4]; first compound 0.06325 µM)	relative viability ([4]; first compound 0.2 µM)	relative viability ([4]; first compound 0.6325 µM)	relative viability ([4]; first compound 2 µM)	relative viability ([1]; first compound 0.01 µM)
NCI-H727	0.821	0.811	0.768	0.753	0.817	1.01	0.787	0.677	0.578	0.701	0.742	0.82	0.983	0.753	0.364	0.438	0.339	0.333	0.386	–
A-427	0.764	0.672	0.373	0.285	0.855	1.02	0.897	0.978	0.88	1.07	1.1	1.05	1.04	1.01	0.722	0.681	0.673	0.765	0.647	0.718
EMC-BAC-2	0.487	0.367	0.317	0.302	0.793	0.824	0.748	0.674	0.692	0.882	0.969	0.861	1.11	0.921	0.359	0.323	0.353	0.298	0.276	0.355
NCI-H647	0.503	0.47	0.0818	0.124	1.02	1.26	0.84	0.375	0.17	1.13	1.25	1.12	1.11	0.86	0.193	0.158	0.189	0.164	0.0812	0.48
LCLC-97TM1	0.398	0.514	0.234	0.394	0.365	0.455	0.244	0.344	0.371	1.23	–	1.05	1.05	0.864	0.722	0.98	1.03	0.804	0.864	0.438
HOP-62	0.396	0.56	0.42	0.296	1.04	1.02	0.956	0.901	1.01	0.918	–	1.05	1.06	1.07	0.744	0.729	0.691	0.844	0.634	0.365
NCI-H1437	0.639	0.631	0.416	0.417	0.866	0.924	0.962	0.517	0.262	0.892	0.915	0.729	0.905	0.683	0.382	0.355	0.391	0.382	0.403	0.567
NCI-H1755	0.837	0.911	0.873	0.896	0.867	0.943	0.862	0.915	0.887	1.08	1.01	0.994	1.12	0.95	0.415	0.412	0.432	0.397	0.317	0.818
HARA	1.05	0.8	0.718	0.759	1.04	1.04	1.03	1.01	0.959	0.798	0.643	0.721	0.862	0.735	0.168	0.233	0.323	0.245	0.28	0.722
HCC-15	0.731	0.657	0.522	0.491	0.733	0.817	0.767	0.551	0.534	0.891	0.921	0.851	0.875	0.792	0.696	0.59	0.592	0.551	0.483	0.692
LOU-NH91	–	0.877	0.666	0.462	–	0.763	0.772	0.674	0.711	0.765	0.681	0.827	0.735	0.669	0.538	0.495	0.513	0.538	0.489	0.899
NCI-H23	0.356	0.373	0.334	0.32	–	0.479	0.507	0.298	0.449	1.16	1.39	1.11	0.985	0.95	0.801	0.713	0.645	0.606	0.677	0.293
NCI-H1666	–	0.701	0.602	0.607	1.02	0.915	0.608	0.295	0.285	0.668	–	0.523	0.649	0.445	0.841	0.804	0.813	0.742	0.652	0.733
NCI-H358	0.592	0.535	0.12	0.116	0.728	0.543	0.441	0.202	0.0991	0.435	0.378	0.477	0.378	0.288	0.17	0.158	0.149	0.179	0.138	0.347
NCI-H2085	0.788	0.825	0.92	0.775	0.924	0.97	0.943	0.648	0.63	0.865	0.784	0.777	0.977	0.71	0.281	0.226	0.285	0.248	0.25	0.828
LCLC-103H	0.726	0.82	0.799	0.769	1.07	1.06	1.03	1.06	1.19	–	–	–	–	–	0.537	0.407	0.465	0.55	0.446	0.726
NCI-H1734	0.294	0.689	0.435	0.565	0.714	0.788	0.583	0.517	0.588	0.991	1.07	1	1.14	0.758	0.582	0.386	0.409	0.331	0.272	0.644
NCI-H1563	–	–	–	–	0.826	0.728	0.584	0.522	0.447	0.982	0.899	0.974	1.19	0.809	0.477	0.406	0.508	0.421	0.428	–
NCI-H441	0.545	0.518	0.235	0.239	0.827	0.644	0.63	0.487	0.48	–	–	–	–	–	0.614	0.655	0.54	0.521	0.438	0.511

Cell Line	relative viability ([1]; first compound 0.001 µM)	relative viability ([1]; first compound 0.003162 µM)	relative viability ([1]; first compound 0.03162 µM)	relative viability ([1]; first compound 0.1 µM)	relative viability ([2]; first compound 0.001 µM)	relative viability ([2]; first compound 0.003162 µM)	relative viability ([2]; first compound 0.01 µM)	relative viability ([2]; first compound 0.03162 µM)	relative viability ([2]; first compound 0.1 µM)	relative viability ([3]; first compound 0.02 µM)	relative viability ([3]; first compound 0.06325 µM)	relative viability ([3]; first compound 0.2 µM)	relative viability ([3]; first compound 0.6325 µM)	relative viability ([3]; first compound 2 µM)	relative viability ([4]; first compound 0.02 µM)	relative viability ([4]; first compound 0.06325 µM)	relative viability ([4]; first compound 0.2 µM)	relative viability ([4]; first compound 0.6325 µM)	relative viability ([4]; first compound 2 µM)	relative viability ([1]; first compound 0.01 µM)
H3255	0.541	0.553	0.48	0.424	0.917	0.88	0.804	0.608	0.45	0.257	0.203	0.274	0.249	0.229	0.411	0.304	0.352	0.335	0.462	0.541
Calu-6	0.554	0.536	0.298	0.197	0.776	0.708	0.52	0.229	0.171	1.09	1.23	1.09	1.02	0.923	–	–	–	–	–	0.457
NCI-H1915	0.256	0.258	0.311	0.27	0.917	0.915	0.871	0.889	0.952	1.02	1.02	0.925	0.878	0.919	0.313	0.312	0.344	0.314	0.272	0.249
NCI-H1793	–	0.93	0.566	0.88	–	–	–	–	–	0.479	0.775	0.823	0.948	0.796	0.365	0.357	–	0.32	0.427	0.759
NCI-H1651	0.216	0.182	0.184	0.198	0.934	0.929	0.855	0.836	0.871	0.979	0.863	0.768	0.826	0.801	0.379	0.459	0.387	0.32	0.318	0.205
NCI-H2126	0.908	0.962	0.941	0.907	1.04	1.08	0.961	1.08	1.05	0.83	0.724	0.745	0.794	0.745	0.676	0.599	0.573	0.567	0.356	0.916
HCC-44	0.929	1	1.01	0.993	0.868	0.915	0.824	0.81	0.785	1.02	1.02	1.02	1.06	1.21	–	–	–	–	–	0.997
EBC-1	0.682	0.735	0.54	0.284	0.222	0.189	0.179	0.177	0.164	0.218	0.228	0.181	0.243	0.244	–	–	–	–	–	0.73
NCI-H1623	–	–	–	–	–	–	–	–	–	–	–	–	–	–	0.556	0.557	0.533	0.522	0.501	–
NCI-H1648	0.618	1.05	0.492	0.791	–	–	–	–	–	–	–	–	–	–	–	–	–	–	–	0.5
NCI-H522	0.524	0.658	0.638	0.589	–	–	–	–	–	–	–	–	–	–	0.838	0.792	0.975	0.832	0.747	0.678
IA-LM	0.796	0.889	0.754	0.673	0.604	0.914	0.564	0.376	0.113	0.92	0.841	–	0.981	0.58	–	–	–	–	–	0.954
NCI-H1395	0.445	0.506	0.417	0.4	–	–	–	–	–	1.13	1.08	1.34	0.98	0.973	0.385	0.404	0.387	0.383	0.399	0.466
NCI-H2342	0.41	0.525	0.371	0.384	–	–	–	–	–	–	–	–	–	–	0.297	0.32	0.319	0.311	0.367	0.445
NCI-H1299	0.937	0.949	0.942	0.753	0.952	0.981	0.939	0.874	0.49	0.945	0.98	0.97	0.963	0.953	–	–	–	–	–	0.952
A549	–	0.437	0.275	0.264	0.774	0.634	0.419	0.0759	0.0405	1.09	1.15	1.05	0.953	0.902	–	–	–	–	–	0.375
SW 900	–	1.16	0.674	0.868	–	–	–	–	–	–	–	–	–	–	0.84	0.559	0.706	0.457	0.303	0.894
ChaGo-K-1	0.437	0.408	0.486	0.442	1.15	1.01	0.98	0.45	0.378	–	–	–	–	–	0.566	0.547	0.591	0.548	0.596	0.352
NCI-H1703	0.377	0.332	0.222	0.177	0.578	0.789	0.365	0.179	0.0887	1.55	1.2	0.978	1.02	0.891	–	–	–	–	–	0.309

Reference: the supplement of paper PMC10307832
